# Measurements taken from patent US20200308620A1, “PREDICTING TUMOR SPECIFICITY OF TARGETED THERAPEUTICS USING ATOMIC FORCE MICROSCOPY (AFM)” (Children's Medical Center Corporation, priority 2017, published 2020).
# Legend:
# [1] = test system: ICAM1 expression on MDA-MB-231 cell surface; test: Flow cytometric analysis of ICAM1 surface expression pre- and post-MCD treatment; assay type: cell-based, human; conditions: MDA-MB-231, pre- and post-MCD treatment
# Description: In addition to the overexpression level, the organization of antigens on the cell membrane is another key factor driving differences in antibody-antigen binding behavior^11. AFM-detected adhesive events were also used to spatially map the binding forces on MDA-MB-231 (FIG. 2E) and MCF10A (FIG. 2F) cell surface. […] These “hot-spots” are predicted to be the primary binding sites for ICAM1 antibody-directed nanomedicine due to the high binding forces. ICAM1 molecules may be enriched in membrane lipid rafts of MDA-MB-231 cells to facilitate functional signaling^22. […] In order to determine whether ICAM1 adhesion forces are dependent on the organization of ICAM1 molecules in lipid rafts on the cell membrane, both MDA-MB-231 and MCF10A cells were treated with methyl-beta-cyclodextrin (MCD), a cholesterol-depleting drug that disrupts lipid rafts, and then the average binding force was re-measured. […]
# 10^6 cells were collected and rinsed twice through suspension-spin cycles. […] Cells were rinsed with 1% BSA in PBS three times, resuspended in PBS, and evaluated by a BD FACSCalibur flow cytometer (BD Biosciences). Quantification of cell surface antigen was determined with reference to Quantum Simply Cellular microbeads, using the protocol provided by the manufacturer.
# [2] = test system: patient-derived NHL B cells; conditions: cited from earlier work
# [3] = test system: normal red blood cells; conditions: Li et al.; cited from earlier work
# [4] = test system: MDA-MB-231 cells; test: In vitro cytotoxicity (cell viability) assay; assay type: cell-based, human; conditions: MDA-MB-231, Dox concentration, treated 4 hours, grown 48 hours
# Experimental: In vitro cytotoxicity of ICAM-Dox-LPs on TNBC cells was evaluated using a cell viability assay. Five thousand cells (MDA-MB-231, MDA-MB-436, and MDA-MB-157) were seeded in each well of a 96 well plate and incubated for 24 hours. Cells were treated with (1) ICAM-LP without Dox; (2) Free Dox; (3) non-specific IgG-Dox-LPs and (4) ICAM-Dox-LPs for 4 hours. Cells were rinsed twice with PBS and grown for 48 hours. Cell viability was determined by a Dojindo cell counting kit using the manufacturer's protocol (Rockville, Md.).
molecule,measurement,setting,value
methyl-beta-cyclodextrin [MCD],effect on average ICAM1 expression on cell surface,[1],did not affect
Rituximab: FDA-approved CD20 antibody for Non-Hodgkin's Lymphoma treatment,binding force difference (NHL B cells minus normal red blood cells),[2]; NHL B cells minus normal red blood cells,33 pN
same,binding force,"[2]; patient-derived NHL B cells, Li et al.",54±34 pN
same,binding force,[3],21±19 pN
"COc1cccc2c1C(=O)c1c(O)c3c(c(O)c1C2=O)C[C@@](O)(C(=O)CO)C[C@@H]3O[C@H]1C[C@H](N)[C@H](O)[C@H](C)O1 [free Dox, doxorubicin]",IC50 (cytotoxicity),[4],7.4 µg/mL
